In patent publication US9896662B2, “Process for enhancing stem cell bioactivity using tauroursodeoxycholic acid” (Pusan National University Industry—University Cooperation …, priority 2014, dated 2018):

Columns and labels:
angiogenic stem cells [1] = test: infiltration capability of angiogenic stem cells; assay type: cell-based; conditions: 50 μM of TUDCA
Description: (§1) In order to confirm that the treatment with TUDCA involves enhancement of biological activity functions of angiogenic stem cells in addition to enhancement of mobilization and migration capabilities of angiogenic stem cells from bone marrow to peripheral blood and ischemic tissue, angiogenic stem cells were treated with different concentrations (0, 10, 50, 100 μM) of TUDCA. Then, various biological activity functions were evaluated. […] In order to confirm vascular differentiation potential, tube-forming capability was examined.

CD34+ HSCs = test: EPC colony forming capability of CD34+ HSCs (differentiation into the EPC lineage); assay type: cell-based
Source text: (§2) Meanwhile, in order to clarify the impact of TUDCA on CD34^+ HSC differentiation into the EPC lineage, the EPC colony forming capability of CD34^+ HSCs was examined. As a result, it was confirmed that the EPC colony forming capability was enhanced by TUDCA (FIG. 4e). Further, as Akt activation via PI3-kinase increases differentiation of CD34^+ HSCs into the EPC lineage, it was examined whether TUDCA activates Akt in CD34^+ HSC. As a result, it was confirmed that TUDCA increased Akt phosphorylation, and the exposure to LY294002, a PI3K inhibitor, inhibited TUDCA-mediated CD34^+ HSC differentiation into the EPC lineage (FIG. 4f).

hindlimb ischemic tissue [2] = test: mouse hindlimb ischemia model, oral TUDCA; assay type: in vivo; conditions: 20 mg/kg oral every day
Description: TUDCA was applied to mouse disease models based on the above experiments, to verify the effects. Mouse hindlimb ischemia model, which is one of the disease animals, for verifying vascular repair capability was prepared. Thereafter, 20 mg/kg of TUDCA was orally administered to mice every day, to confirm vascular repair capability over time. […] In order to confirm whether angiogenic stem cells were mobilized by TUDCA to hindlimb ischemic tissue, hindlimb ischemic tissue was removed 3 days after the preparation of the hindlimb ischemia models, and flow cytometry was performed using an angiogenic stem cell marker. As a result, it was confirmed that the number of angiogenic stem cells in ischemic tissue increased in the group to which TUDCA was orally administered (FIG. 7c). In order to confirm angiogenesis by TUDCA, hindlimb ischemic tissue was removed 14 days after the preparation of the hindlimb ischemia models and subjected to immunofluorescent staining, to verify capillary density and arteriole density.

[3] = system: angiogenic stem cells (CD34+/Sca1+) in peripheral blood; test: FACS analysis of angiogenic stem cells in peripheral blood after oral administration; assay type: in vivo; conditions: 10 mg/kg oral, C57BL/6 mice, day 0, 1, 3
Description: (§3) In order to confirm mobilization capability of angiogenic stem cells, which were dissociated from bone marrow stromal cells, to peripheral blood, CD34^+ hematopoietic stem cells (HSCs) were treated with various concentrations of TUDCA (0, 10, 50, 100 μM), to confirm the cell migration capability by trans-well assay. […] Based on the result, TUDCA (10 mg/kg) was orally administered to C57BL/6 mice, and the number of angiogenic stem cells (CD34^+/Sca1^+) in peripheral blood were analyzed by FACS analysis over time (at day 0, 1, 3).

Akt = Akt activation in CD34+ HSC; assay type: cell-based
Source text: as §2

hindlimb ischemic tissue [4] = test: hindlimb ischemia model in GFP bone marrow-transplanted mice, oral TUDCA; assay type: in vivo, GFP-BMT mice (C57BL/6); conditions: 20 mg/kg oral, GFP-BMT mice
Source text: It is known that angiogenic stem cells are mainly present in bone marrow, but they are present in different tissues than bone marrow. In order to confirm whether angiogenic stem cells are derived from bone marrow by TUDCA and involved in vascular repair mechanism, bone marrow was isolated from green fluorescent protein (GFP) mice and transplanted into C57BL/6. Once bone marrow transplantation (BMT) mice are thus prepared, chimeric mice which show green fluorescence only for bone marrow cells are obtained. After preparing hindlimb ischemia animal models using GFP-BMT mice, TUDCA (20 mg/kg) was orally administered to verify vascular repair capability. […] In order to confirm angiogenesis by TUDCA, hindlimb ischemic tissue was removed 14 days after the preparation of the hindlimb ischemia models and subjected to immunofluorescent staining, to verify capillary and arteriole density. […] In order to confirm whether angiogenic stem cells were mobilized by TUDCA from bone marrow to hindlimb ischemic tissue, mobilization capability of angiogenic stem cells was examined by immunofluorescent staining using a bone marrow marker GFP, an angiogenic stem cell marker c-kit, a vascular marker ILB4, into which hindlimb ischemic tissue removed from the hindlimb ischemia models was transplanted 3 days after the preparation. […] In order to examine whether angiogenic stem cells mobilized by TUDCA from bone marrow differentiate into new blood vessels in hindlimb ischemic tissue, vascular differentiation potential of angiogenic stem cells was examined, through immunofluorescent staining and morphological analysis, using a bone marrow marker GFP, a marker of vascular differentiation VEGFR, a vascular marker ILB4, into which hindlimb ischemic tissue removed from the hindlimb ischemia models was transplanted 14 days after the preparation.

angiogenic stem cells [5] = test: tube-forming capability of angiogenic stem cells; assay type: cell-based; conditions: TUDCA 0, 10, 50, 100 μM; concentration-dependent
Description: as §1

[6] = system: CD44, Jagged-1, N-cadherin, VLA5, CXCR4, c-kit, and Notch in EPCs; test: mRNA expression levels of cell adhesion molecules in EPCs; assay type: cell-based
Source text: (§4) Further, as the first step of integration with vascular endothelial cells is cell adhesion, mRNA expression levels of cell adhesion molecules in HAECs and EPCs were examined.

[7] = system: ICAM, Jagged1, N-cadherin, LFA1, and c-kit; test: mRNA expression of cell adhesion factors in CD34+ cells; assay type: cell-based; conditions: TUDCA 50 μM for 5 hours
Description: Based thereon, a change in mRNA expression of cell adhesion factors involved in cell adhesion was confirmed. After treating CD34^+ cells with TUDCA (50 μM) for 5 hours, mRNA expression of ICAM, Jagged′, N-cadherin, LFA1, and c-kit, which are involved in cell adhesion, was confirmed.

[8] = system: angiogenic stem cells and cell populations in peripheral blood; test: oral administration to healthy subjects: cell populations mobilized to peripheral blood; assay type: in vivo, human; conditions: 5 mg/kg oral for 3 days
Description: Upon oral administration of TUDCA to healthy subjects, angiogenic stem cells and various cell populations, which were mobilized to peripheral blood, were confirmed and differentiation potential into functional endothelial progenitor cells was verified using peripheral blood. 5 mg/kg of TUDCA was orally administered to healthy subjects for 3 days, and the expression of angiogenic stem cell markers was examined.

[9] = system: CD34+ hematopoietic stem cells (HSCs); test: trans-well assay of cell migration capability; assay type: cell-based; conditions: TUDCA 0, 10, 50, 100 μM; concentration-dependent
Description: as §3

[10] = system: leukocytes, lymphocytes, monocytes, and granulocytes in peripheral blood; test: complete blood cell (CBC) count; assay type: in vivo; conditions: oral, mice, 10 mg/kg for 3 days
Description: (§5) When TUDCA was orally administered, a variety of cell populations are mobilized to peripheral blood. After orally administering TUDCA to mice, the cell populations were analyzed by Hill's assay. As a result, it was confirmed that the number of angiogenic stem cells increased in TUDCA concentration and time-dependent manner (FIGS. 4a and 4b). In order to confirm side effects caused by mobilization of cell populations associated with immunity and inflammation, other than angiogenic stem cells, upon treatment with TUDCA, the change in the number of leukocytes, lymphocytes, monocytes, and granulocytes in peripheral blood was confirmed by complete blood cell (CBC) count. […] Also, it was confirmed that […] are EPCs by confirming the uptake of acetyl-LDL and FITC-isolectin B4 (FIG. 4d).

[11] = system: CD44, N-cadherin, c-kit, and LFA1 in HAECs; test: mRNA expression levels of cell adhesion molecules in HAECs; assay type: cell-based, Human
Source text: as §4

[12] = system: CD34+ cells on bone marrow stromal cells; test: adhesion and dissociation of CD34+ cells on bone marrow stromal cells (fluorescence microscope count); assay type: cell-based; conditions: TUDCA 50, 100 μM, incubated 1 hour, compared with the control
Description: When ischemic damage occurs, for vascular repair, a process in which angiogenic stem cells integrated with bone marrow stromal cells are dissociated from bone marrow and transported to ischemic tissue first occurs in the vascular repair mechanism. In order to confirm a change in dissociation of angiogenic stem cells from bone marrow stromal cells by TUDCA, CD34^+ cells stained with CM-DiI (staining red), which were treated with TUDCA (0, 50, 100 μM), were incubated for 1 hour on glass slides in which bone marrow stromal cells were seeded. The number of CD34^+ cells adhered to or dissociated from bone marrow stromal cells was counted by a fluorescence microscope (FIGS. 1a, 1b, and 1c). AMD3100, a CXCR4 antagonist, was used as a positive control.

[13] = system: Human arterial endothelial cells (HAECs) mixed with angiogenic stem cells; test: tube formation assay of HAECs mixed with angiogenic stem cells; assay type: cell-based; conditions: TUDCA 50 μM
Source text: It is the most significant process in the vascular recovery mechanism that angiogenic stem cells mobilized from bone marrow are integrated with vascular endothelial cells preexisting in damaged tissue, to generate new blood vessels through interaction. Human arterial endothelial cells (HAECs) were mixed with angiogenic stem cells, and then the integration capability between the two cells was examined by tube formation assay.

[14] = system: senescent angiogenic stem cells; test: nitric oxide and reactive oxygen species in senescent angiogenic stem cells; assay type: cell-based; conditions: senescent angiogenic stem cells treated with TUDCA
[15] = system: senescent angiogenic stem cells (passages 13 to 16); test: β-galactosidase staining of senescent angiogenic stem cells; assay type: cell-based
Description: In order to use stem cells as a stem cell therapy product, it is important to obtain a sufficient number of stem cells in a healthy state. However, upon in vitro expansion of stem cells for obtaining a sufficient number of stem cells, repeated passages cause senescence of stem cells. In order to resolve this problem, angiogenic stem cells subjected to repeated passages (passages 13 to 16) were treated with TUDCA, to verify senescence inhibition. Senescent angiogenic stem cells were treated with TUDCA and subjected to β-galactosidase staining capable of confirming senescence, to confirm senescence recovery.

angiogenic stem cells [16] = test: proliferation capability of angiogenic stem cells; assay type: cell-based; conditions: 50 μM of TUDCA (tested 0, 10, 50, 100 μM)
Description: as §1

[17] = system: angiogenic stem cells in peripheral blood; test: Hill's assay of cell populations mobilized to peripheral blood; assay type: in vivo; conditions: oral, mice; concentration and time-dependent
Description: as §5

[18] = day 14, immunofluorescent staining

C[C@H](CCC(=O)NCCS(=O)(=O)O)[C@H]1CC[C@H]2[C@@H]3[C@@H](O)C[C@@H]4C[C@H](O)CC[C@]4(C)[C@H]3CC[C@]12C [TUDCA, tauroursodeoxycholic acid]
significantly improved: blood flow (LDPI assay) (hindlimb ischemic tissue [4])
significantly increased: blood flow improvement (LDPI assay) (hindlimb ischemic tissue [2]) | number of arterioles (hindlimb ischemic tissue [2]; [18]) | number of capillaries (hindlimb ischemic tissue [2]; [18]) | number of angiogenic stem cells (CD34+/Sca1+) in peripheral blood [3] | number of angiogenic stem cells derived from bone marrow into ischemic tissue (hindlimb ischemic tissue [4]; day 3, GFP/c-kit/ILB4 staining) | number of arterioles (hindlimb ischemic tissue [4]; day 14) | number of capillaries (hindlimb ischemic tissue [4]; day 14) | number of bone marrow-derived angiogenic stem cells differentiated into vascular endothelial cells (hindlimb ischemic tissue [4]; day 14, GFP/VEGFR/ILB4 staining) | tube-forming capability of angiogenic stem cells (angiogenic stem cells [5]) | mRNA expression levels of CD44, Jagged-1, N-cadherin, VLA5, CXCR4, c-kit, and Notch [6] | colony forming capability (EPC-CFA) [8] | expression of angiogenic stem cell markers CD34, CD31, and c-kit [8] | migration capability of CD34+ cells [9] | mRNA expression levels of CD44, N-cadherin, c-kit, and LFA1 [11] | number of CD34+ cells dissociated from the stromal cells [12] | tube formation capability [13] | expression amount of nitric oxide [14] | number of β-galactosidase positive cells [15]
most significantly increased: infiltration capability of angiogenic stem cells (angiogenic stem cells [1]) | proliferation capability of angiogenic stem cells (angiogenic stem cells [16])
enhanced: EPC colony forming capability of CD34+ HSCs (CD34+ HSCs)
significantly decreased: mRNA expression of cell adhesion factors (ICAM, Jagged1, N-cadherin, LFA1, c-kit) [7] | distribution of granulocytes involved in inflammatory response [8] | number of granulocytes involved in inflammatory response [10] | number of CD34+ cells adhered to the stromal cells [12] | expression amount of reactive oxygen species [14]
increased: number of angiogenic stem cells in ischemic tissue (flow cytometry) (hindlimb ischemic tissue [2]; day 3) | Akt phosphorylation (Akt) | number of angiogenic stem cells (Hill's assay) [17]
